Laboratory results: patent US5958950A, “Benzimidazole compounds useful for the treatment of inflammatory disease, atherosclerosis, restenosis or inhibiting lipoxygenase” (Warner-Lambert Company, priority 1998, dated 1999)
pIC50: −log10 of the molar value.

Target: T1, rabbit reticulocyte 15-LO (Oryctolagus cuniculus, UniProt P12530)
T1 construct: rabbit reticulocyte 15-LO; from tissue; host or cells: rabbit reticulocytes
T1 sequence (P12530 1-663): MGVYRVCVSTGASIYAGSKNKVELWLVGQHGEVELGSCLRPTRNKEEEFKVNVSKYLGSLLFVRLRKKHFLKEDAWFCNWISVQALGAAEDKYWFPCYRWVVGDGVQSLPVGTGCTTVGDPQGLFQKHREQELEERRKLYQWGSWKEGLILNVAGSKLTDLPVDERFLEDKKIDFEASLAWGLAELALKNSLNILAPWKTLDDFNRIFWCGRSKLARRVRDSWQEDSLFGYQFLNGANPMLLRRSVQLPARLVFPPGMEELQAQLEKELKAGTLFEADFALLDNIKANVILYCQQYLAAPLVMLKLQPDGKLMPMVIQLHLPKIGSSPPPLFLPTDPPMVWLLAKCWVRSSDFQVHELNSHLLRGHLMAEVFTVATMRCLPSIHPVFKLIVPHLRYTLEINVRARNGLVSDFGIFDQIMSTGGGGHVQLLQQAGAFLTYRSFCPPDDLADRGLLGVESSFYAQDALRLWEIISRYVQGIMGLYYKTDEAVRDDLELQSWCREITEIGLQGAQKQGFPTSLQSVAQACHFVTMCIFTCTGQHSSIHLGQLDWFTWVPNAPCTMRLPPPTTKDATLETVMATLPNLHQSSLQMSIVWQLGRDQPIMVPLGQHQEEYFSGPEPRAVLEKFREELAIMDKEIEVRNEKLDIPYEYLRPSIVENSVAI
Assay: 15-Lipoxygenase Assay: inhibition of 15-LO with linoleic acid as substrate, HPLC method of Auerbach et al.
Type: biochemical
Conditions: HPLC method; incubation at 4° C. for 10 minutes; read-out: concentration of compounds required to inhibit 50% of the activity of 15-LO (IC50)
Experimental: The compounds described above are effective inhibitors of 15-LO when evaluated in standard assays routinely utilized to measure 15-LO activity. Specifically, representative compounds were evaluated by the methods described by Auerbach, et al., Analytical Biochemistry, 1992; 201:375-380.Two in vitro assays were utilized, both utilizing rabbit reticulocyte 15-LO, and linoleic acid as substrate, to enzymatically produce a peroxide oxidation product known as 13(S)-HPODE. N-Benzoyl leucomethylene blue was utilized as a calorimetric reagent for detection and quantification of the peroxide formation. Also, HPLC was utilized to quantify the oxidation following incubation at 4° C. for 10 minutes.
The 15-LO inhibitory activity of representative compounds is presented in Table I. The data column gives the concentration of compounds required to inhibit 50% of the activity of 15-LO (IC50) when measured by the HPLC method of Auerbach, et al. [drawing 10] Wherein W, X, Y and Z are C--H and R1 is hydrogen.

| pIC50 | Compound |
| --- | --- |
| 6.21 | Clc1ccc(-c2csc(-c3nc4ccccc4[nH]3)n2)cc1 [Example 2] |
| 6.72 | Fc1ccc(-c2csc(-c3nc4ccccc4[nH]3)n2)cc1 [Example 3] |
| 6.94 | c1ccc(-c2csc(-c3nc4ccccc4[nH]3)n2)cc1 [Example 6, 2-(4-Phenyl-thiazol-2-yl)-1H-benzoimidazole] |
| 6.30 | COc1cccc(-c2csc(-c3nc4ccccc4[nH]3)n2)c1 [Example 8, 2-[4-(3-Methoxy-phenyl)-thiazol-2-yl]-1H-benzoimidazole] |
| 6.90 | COc1ccccc1-c1csc(-c2nc3ccccc3[nH]2)n1 [Example 9, 2-[4-(2-Methoxy-phenyl)-thiazol-2-yl]-1H-benzoimidazole] |
| 5.78 | COc1ccc(-c2csc(-c3nc4ccccc4[nH]3)n2)cc1 [Example 10, 2-[4-(4-Methoxy-phenyl)-thiazol-2-yl]-1H-benzoimidazole] |
| < 5.60 | Oc1ccc(-c2csc(-c3nc4ccccc4[nH]3)n2)cc1 [Example 12, 4-[2-(1H-Benzoimidazol-2-yl)-thiazol-4-yl]-phenol] |
| < 5.60 | Oc1ccc(-c2csc(-c3nc4ccccc4[nH]3)n2)cc1O [Example 13, 4-[2-(1H-Benzoimidazol-2-yl)-thiazol-4-yl]-benzene-1,2-diol] |
| 6.41 | COc1ccc(OC)c(-c2csc(-c3nc4ccccc4[nH]3)n2)c1 [Example 15, 2-[4-(2,5-Dimethoxy-phenyl)-thiazol-2-yl]-1H-benzoimidazole] |
| 6.48 | Cc1ccccc1-c1csc(-c2nc3ccccc3[nH]2)n1 [Example 19, 2-(4-o-Tolyl-thiazol-2-yl)-1H-benzoimidazole] |
| 6.70 | Clc1cccc(-c2csc(-c3nc4ccccc4[nH]3)n2)c1 [Example 20, 2-[4-(3-Chloro-phenyl)-thiazol-2-yl]-1H-benzoimidazole] |
| 6.34 | Brc1ccc(-c2csc(-c3nc4ccccc4[nH]3)n2)cc1 [Example 21, 2-[4-(4-Bromo-phenyl)-thiazol-2-yl]-1H-benzoimidazole] |

The next lines start with the compound.

| Compound | pIC50 |
| --- | --- |
| c1ccc(-c2csc(-c3nc4ccccc4[nH]3)n2)nc1 [Example 1] | 6.44 |
| Clc1ccc(Cl)c(-c2csc(-c3nc4ccccc4[nH]3)n2)c1 [Example 5] | 6.68 |
| c1csc(-c2csc(-c3nc4ccccc4[nH]3)n2)c1 [Example 7] | 7.02 |
| c1ccc(-c2ccc(-c3csc(-c4nc5ccccc5[nH]4)n3)cc2)cc1 [Example 11, 2-(4-Biphenyl-4-yl-thiazol-2-yl)-1H-benzoimidazole] | < 5.00 |
| COc1cccc(OC)c1-c1csc(-c2nc3ccccc3[nH]2)n1 [Example 16, 2-[4-(2,6-Dimethoxy-phenyl)-thiazol-2-yl]-1H-benzoimidazole] | < 5.00 |
| O=C1c2ccccc2C(=O)N1Cc1csc(-c2nc3ccccc3[nH]2)n1 [Example 25, 2-[2-(1H-Benzoimidazole-2yl)-thiazol-4-ylmethyl]-isoindole-1,3-dione] | < 5.00 |
| Brc1sc(-c2nc3ccccc3[nH]2)nc1-c1ccccc1 [Example 27, 2-(5-Bromo-4-phenyl-thiazol-2-yl)-1H-benzoimidazole] | 6.11 |
| O=C(O)c1sc(-c2nc3ccccc3[nH]2)nc1-c1ccccc1 [Example 29, 2-(lH-Benzoimidazol-2-yl)-4-phenyl-thiazole-5-carboxylic acid] | < 5.00 |
| O=C(NCCCN1CCCCC1)c1csc(-c2nc3ccccc3[nH]2)n1 [Example 32, 2-(1H-Benzoimidazol-2-yl)-thiazole-4-carboxylic acid (3-piperidin-1-yl-propyl)-amide] | < 5.00 |
| Oc1nc(-c2nc3ccccc3[nH]2)sc1-c1ccccc1 [Example 36, 2-(1H-Benzoimidazol-2-yl)-5-phenyl-thiazol-4-ol] | < 5.00 |

Same assay, conditions: marked (P), not explained; read-out: IC50 (P)

| Compound | pIC50 |
| --- | --- |
| Oc1ccccc1-c1csc(-c2nc3ccccc3[nH]2)n1 [Example 17, 2-[2-(1H-Benzoimidazol-2-yl)-thiazol-4-yl]-phenol] | 7.40 |
| c1ccc2[nH]c(-c3nc(-c4ccncc4)cs3)nc2c1 [Example 37] | 6.27 |

Same assay, conditions: marked (Q), not explained; read-out: IC50 (Q)

| Compound | pIC50 |
| --- | --- |
| Oc1ccccc1-c1csc(-c2nc3ccccc3[nH]2)n1 [Example 17, 2-[2-(1H-Benzoimidazol-2-yl)-thiazol-4-yl]-phenol] | 7.10 |
| c1ccc2[nH]c(-c3nc(-c4ccncc4)cs3)nc2c1 [Example 37] | 6.09 |

Same assay, conditions: read-out: 15-LO inhibitory activity, % @ 10 μM

| Compound | inhibition at 10 µM |
| --- | --- |
| Oc1ccc(Br)cc1-c1csc(-c2nc3ccccc3[nH]2)n1 [Example 14, 2-[2-(1H-Benzoimidazol-2-yl)-thiazol-4-yl]-4-bromo-phenol] | 91.3% |
| Cc1ccc(-c2csc(-c3nc4ccccc4[nH]3)n2)cc1 [Example 18, 2-(4-p-Tolyl-thiazol-2-yl)-1H-benzoimidazole] | 71.6% |
| CCOC(=O)c1sc(-c2nc3ccccc3[nH]2)nc1-c1ccccc1 [Example 28, 2-(1H-Benzoimidazol-2-yl)-4-phenyl-thiazole-5-carboxylic acid ethyl ester] | 69% |
| CCOC(=O)c1csc(-c2nc3ccccc3[nH]2)n1 [Example 30, 2-(1H-Benzoimidazol-2-yl)-thhiazole-4-carboxylic acid ethyl ester] | 25% |
| O=C(O)c1csc(-c2nc3ccccc3[nH]2)n1 [Example 31, 2-(1H-Benzoimidazol-2-yl)-thiazole-4-carboxylic acid] | 1.38% |
| O=C(Nc1ccccc1)c1csc(-c2nc3ccccc3[nH]2)n1 [Example 33, 2-(1H-Benzoimidazol-2-yl)-thiazole-4-carboxylic acid phenylamide] | 25.1% |
| O=C(Nc1sc(-c2nc3ccccc3[nH]2)nc1-c1ccccc1)OCc1ccccc1 [Example 34, [2-(1H-Benzoimidazol-2-yl)-4-phenyl-thiazol-5-yl]-carbamic acid benzyl ester] | 89.2% |
| N#Cc1cccc(-c2csc(-c3nc4ccccc4[nH]3)n2)c1 [Example 35, 3-[2-(1H-Benzoimidazol-2-yl)-thiazol-4-yl]-benzonitrile] | 45% |
